Reference: patent US8163805B2, “Small molecule antagonists of Bcl-2 family proteins” (The Regents of the University of Michigan, priority 2001, dated 2012)
“And” between values parts separate entries of the source, which are not always exact repeats. Equal values may be shown once. Read-outs that look alike come from different tables or passages of the source.

Tests used:
[1] = tested on: A549 non-small cell lung carcinoma xenograft; test: A549 non-small cell lung carcinoma xenograft, (−)-gossypol with paclitaxel; conditions: Table 13; combinations of G- with paclitaxel at 7.5 mg/kg
[2] = tested on: androgen independent prostate cancer PC-3 xenograft; test: PC-3 xenograft, (−)-gossypol alone and with docetaxel (Example 22); conditions: for complete tumor regression, number of mice: combination of (−)-gossypol with docetaxel
[3] = tested on: Fib-2 (fibroblast cell line 2); test: 6-day MTT cell growth, Fib-2; type: cell-based, human; conditions: read-out: IC50, inhibition of cell growth
Experimental: (§1) UM-SCC and human fibroblast cell lines were continuously exposed to varying concentrations of (−)-gossypol in 6-day MTT cell survival assays. Control wells contained media (DMEM) with vehicle alone. For each data point n=5.
(§2) Ten squamous cell carcinoma cell lines established at the University of Michigan (UM-SCC) and three human fibroblast lines were grown in Dulbecco's modified Eagle's medium (DMEM) supplemented with 10% fetal bovine serum. UM-SCC cell lines originated from the larynx (n=2; UM-SCC-12, -23), oral cavity/oropharynx (n=5; UM-SCC-1, -6, -14A, -74B, -81B), hypopharynx (n=1; UM-SCC-22A) and metastases from laryngeal cancers (n=2; UM-SCC-17B, -25). Human fibroblast cell lines originated from surgical specimens (fibroblast cell lines 2 and 3) and neonatal foreskin samples (fibroblast cell line 1).
(§3) Logarithmically growing cell lines were cultured, washed, counted, and plated at 5,000-15,000 cells per well in duplicate wells of 96-well plates and incubated in DMEM overnight. […] The MTT assay measures cell survival based on mitochondrial conversion of MTT from a soluble tetrazolium salt into an insoluble colored formazan precipitate, which is dissolved in dimethyl sulfoxide and quantitated by spectrophotometry. […] Percent absorbance relative to control was plotted as a linear function of drug concentration.

[4] = tested on: human breast cancer MDA-MB-231 (2LMP) xenograft; conditions: Table 8
[5] = tested on: PC-3 prostate cancer cells; test: MTT-based 5-day cell proliferation, PC-3; design: species or system human
Source text: (§4) The present invention is not limited to any mechanism. Indeed, a mechanistic understanding of the invention is unnecessary to practice (make and use) the present compositions and methods.

UM-SCC-22A = test: 6-day MTT cell growth, UM-SCC-22A; type: cell-based, human; conditions: read-out: IC50, inhibition of cell growth
Experimental: as §1, §2, §3

UM-SCC-14A [6] = test: Trypan blue exclusion cell death, UM-SCC-14A; type: cell-based, human; conditions: 10 μM, 48 hour
Experimental: (§5) Cells were seeded in 24 or 96-well-plates and gossypol compounds were prepared at 2-10 fold dilutions in suitable medium. […] Cell viability was then determined by the trypan-blue assays. Inhibition of cell growth was determined by treating cells with gossypol compounds for 3-6 days. Cell inhibition was determined using XTT. In some embodiments, MTT assays are used to determine cell inhibition.

UM-SCC-12 [7] = test: Flow cytometric TUNEL apoptosis assay, UM-SCC-12; type: cell-based, human; conditions: 10 μM, 48-hour
Experimental: (§6) Briefly, FIGS. 24A-24C show apoptosis after (−)-gossypol as measured by a fluorescent flow cytometric TUNEL assay. Open peaks represent BrdU labeling of untreated cells. Shaded peaks indicate BrdU labeling of cell populations following 48-hour treatment with 10 μM (−)-gossypol; FIG. 24A, UM-SCC-cell lines with wild type p53; FIG. 24B, UM-SCC-cell lines with mutant p53; and FIG. 24C normal fibroblast cells.
(§7) Apoptosis of UM-SCC cell lines following (−)-gossypol treatment was quantitatively detected by enzymatic labeling of DNA strand breaks using terminal deoxynucleotidyltransferase (TdT) and Alexa Fluor-BrdUTP, known as the TdT-UTP nick end-labeling (TUNEL) assay by flow cytometry. Cells were exposed to (−)-gossypol for 48 hours, harvested, fixed and TUNEL stained according to the manufacturer's protocol (Molecular Probes Inc., Eugene, Oreg.). Ten thousand cells were analyzed per sample using excitation of Alexa Fluor at 488 nm. Apoptotic index (AI) was defined as percent of apoptotic cells in the treatment population minus that in the vehicle control population.

[8] = tested on: PC-3 prostate cancer cell line; test: Annexin V-FITC/PI apoptosis with TXT or CDDP, PC-3; type: cell-based, human; conditions: PC-3, 48 hrs
Source text: as §4

[9] = tested on: PC-3 human prostate cancer bilateral xenografts; test: PC-3 xenograft, (−)-gossypol alone and with cisplatin (Table 11); type: in vivo, NCr-nu nude mouse; conditions: Table 11
UM-SCC-6 = test: Flow cytometric TUNEL apoptosis assay, UM-SCC-6; type: cell-based, human; conditions: 10 μM, 48-hour
Experimental: as §6, §7

UM-SCC-81B = test: 6-day MTT cell growth, UM-SCC-81B; type: cell-based, human; conditions: read-out: IC50, inhibition of cell growth
Experimental: as §1, §2, §3

[10] = tested on: LnCap prostate cancer cells; test: MTT-based 5-day cell proliferation, LnCap; design: species or system human
Source text: as §4

UM-SCC-14A [11] = test: Flow cytometric TUNEL apoptosis assay, UM-SCC-14A; type: cell-based, human; conditions: 10 μM, 48-hour
Experimental: as §6, §7

UM-SCC-12 [12] = test: Trypan blue exclusion cell death, UM-SCC-12; type: cell-based, human; conditions: 10 μM, 48 hour
Experimental: as §5

[13] = (−)-gossypol 7.5 mg/kg p.o. daily 4 weeks, docetaxel 7.5 mg/kg once a week 3 weeks
[14] = 8 Gy radiation with 4 μM gossypol
[15] = 8 Gy radiation with 5 μM gossypol
[16] = Table 17 (content identical to Table 18)
[17] = Table 18, PC-3 xenograft, (−)-gossypol 10 mg/kg orally for 4 weeks, radiation 2 Gy 5 times/week

## Cc1cc2c(C(C)C)c(O)c(O)c(C=O)c2c(O)c1-c1c(C)cc2c(C(C)C)c(O)c(O)c(C=O)c2c1O [(−)-gossypol]
[1]
  tumor growth inhibition compared with vehicle control: 76% tumor growth inhibition as
[2]; [13]
  Complete tumor regression/Total: 2 out of 12 and 2/12
  Percent regression: 17%
[2]; Table 9, (−)-gossypol 15 mg/kg p.o. in combination with docetaxel 7.5 mg/kg i.v.
  tumor growth inhibition compared with vehicle control: 84% tumor growth inhibition as
[2]; Table 9, PC-3 flank xenografts (~100 mm^3 at start), NCr-nu nude mouse, 15 mg/kg daily p.o., alone
  tumor growth inhibition on day 42: growth inhibition (52% on day 42,
[2]; Table 9, out of 5 mice
  complete tumor regression, number of mice: complete tumor regression in 3 out mice
[2]; Table 10, (−)-gossypol in combination with docetaxel 7.5 mg/kg i.v.
  tumor inhibition compared with vehicle control: at 7.5 mg/kg achieved 89.9% tumor
[2]; Table 10, PC-3 flank xenografts (~120 mm^3 at start), NCr-nu nude mouse, daily p.o. for 28 days, alone (racemic 15 mg/kg)
  tumor growth inhibition on day 56 compared to vehicle controls: antitumor activity (60% on day 56,
[2]; Table 10, out of 8 mice
  complete tumor regression, number of mice: complete tumor regression in 5 out mice
[3]
  IC50: 20 µM
PC-3 cells; [14]
  Combination Index (CI): 0.34
  Dose Reduction Index (DRI): 4.3
PC-3 cells; [15]
  Combination Index (CI): 0.27
  Dose Reduction Index (DRI): 6.1
PC-3 cells; with 6 Gy X-ray
  reduction in colony formation from controls: 10 fold
PC-3 cells; with 8 Gy X-ray
  reduction in colony formation from controls: 20 fold
[4]; (−)-gossypol 7.5 mg/kg p.o. in combination with docetaxel 7.5 mg/kg i.v., p < 0.01
  tumor growth inhibition: there was more than 90% tumor
[4]; (−)-gossypol 30 mg/kg p.o. q day for 4 weeks, alone
  tumor growth inhibition: 30 mg/kg of G-, there was 40%
[4]; (−)-gossypol 15 or 7.5 mg/kg p.o. alone
  anti-tumor effect: did not achieve significant anti-
[4]; (−)-gossypol at any of the three doses (7.5, 15, 30 mg/kg p.o.) in combination with docetaxel 7.5 mg/kg i.v.
  tumor growth inhibition: all achieved significant tumor
[4]; (−)-gossypol in combination with docetaxel, 8 mice per group
  tumor regression, number of mice: There was tumor regression in 3 mice
[4]; MDA-231 fat-pad xenografts, Balb/c nude mouse, 7.5, 15 or 30 mg/kg p.o. q day for 4 weeks, alone
  inhibition of tumor growth by (−)-gossypol alone: There was dose-dependent
[5]
  potency in inhibiting cancer cell growth relative to (+)-gossypol: 5-10 times
  potency in inhibiting cancer cell growth relative to racemic gossypol: 2 times
UM-SCC-22A
  IC50: 3 µM
UM-SCC-14A [6]
  surviving (trypan blue excluding) fraction relative to untreated controls: 16%
UM-SCC-12 [7]
  apoptotic index (AI): 27.2%
[8]
  effect on activity of docetaxel and cisplatin: enhanced the activities of docetaxel and cisplatin (CDDP) in inhibiting cell growth and inducing apoptosis
[9]; (−)-gossypol 7.5 mg/kg p.o. in combination with cisplatin 5 mg/kg i.v.
  tumor growth inhibition compared with vehicle control: cisplatin at 5 mg/kg achieved 65%
[9]; combination regimen of (−)-gossypol 7.5 mg/kg p.o. with cisplatin 5 mg/kg i.v.
  weight loss during the treatment: CDDP alone, and 20-23% weight
UM-SCC-6
  apoptotic index (AI): 80.3%
UM-SCC-81B
  IC50: 4 µM
[10]
  potency in inhibiting cancer cell growth relative to (+)-gossypol: 5-10 times
  potency in inhibiting cancer cell growth relative to racemic gossypol: 2 times
PC-3 xenograft; (−)-gossypol 10 mg/kg with or without radiation
  toxicity by bodyweight measurements: no significant toxicity
PC-3 xenograft; (−)-gossypol alone, 10 mg/kg oral, 4 weeks
  antitumor effect: minimal antitumor effect
PC-3 xenograft; Table 14, (−)-gossypol 10 mg/kg p.o. in combination with radiation 2 Gy per day, total 30 Gy
  tumor growth inhibition compared with vehicle control, day 39: achieved 93% tumor growth
PC-3 xenograft; Table 14, PC-3 flank xenografts (~150 mm^3 at start), (−)-gossypol 10 mg/kg p.o. 5 times q week for 4 weeks, alone, not significant
  tumor growth inhibition, day 39: regimen (about 20%, P = 0.3 or 0.7,
PC-3 xenograft; [16]
  Tumor Growth Delay (T − C Days): 0 days
  Tumor Growth Inhibition (T/C %): 98.6%
PC-3 xenograft; [17]
  Tumor Growth Delay (T − C Days): 0 days
  Tumor Growth Inhibition (T/C %): 98.6%
UM-SCC-14A [11]
  apoptotic index (AI): 14.1%
UM-SCC-12 [12]
  surviving (trypan blue excluding) fraction relative to untreated controls: 14%
